Literature values, collected in patent US20210106004A1, “THERMOPLASTIC MATERIALS HAVING BENEFICIAL PROPERTIES AND PROCESSES FOR PROVIDING THE SAME” (QuadSil, Inc., priority 2016, published 2021).

Details: background statement

Compound: CCCCCCCCCCCCCCCCCC[N+](C)(C)CCC[Si](OC)(OC)OC.[Cl-] [3-(trimethoxysilyl) propyldimethyloctadecyl ammonium chloride]
- temperature at which thermal decomposition begins: 125 °C
